# pIC50: −log10 of the molar value. Calls of active or inactive are those of the source. The calls are words filed in the database; no cut-off is given here.
# Assays:
# MIA PaCa-2 [1] = assay: Preferential cytotoxicity against human MIA PaCa-2 cells in nutrient-deprived medium assessed as alteration in cell morphology by measuring membrane leakage at 0.5 to 1 uM measured after 24 hrs by acridine orange and ethidium bromide dual fluorescent staining based microscopic analysis; format: functional; settings: dose 0.5-1 µM
# MIA PaCa-2 [2] = assay: Preferential cytotoxicity against human MIA PaCa-2 cells in nutrient-deprived medium assessed as alteration in cell morphology by fluorescence intensity measured after 24 hrs by acridine orange and ethidium bromide dual fluorescent staining based microscopic analysis; format: functional; settings: dose 0.5-1 µM
# MIA PaCa-2 [3] = assay: Antimetastatic activity in human MIA PaCa-2 cells in DMEM media assessed as inhibition of colony formation incubated for 24 hrs by crystal violet staining-based assay; format: functional, cell-based; settings: dose 5-20 µM
# MIA PaCa-2 [4] = assay: Antitumor activity against human MIA PaCa-2 cells xenografted in BALB/c/Nu/Nu mouse assessed as tumor volume at 60 mg/kg, ip administered 5 times a week for 4 weeks and measured on day 32 in presence of gemcitabine (reference value: 1417 mm3); format: functional; settings: time 32 day
# MIA PaCa-2 [5] = assay: Antimetastatic activity in human MIA PaCa-2 cells in DMEM media assessed as reduction in colony area at 10 uM incubated for 24 hrs by crystal violet staining-based assay; format: functional; design: scale not given: the % may be the effect or the level left
# [6] = Selectivity index, ratio of IC50 for preferential cytotoxicity against human PANC-1 cells in DMEM to PC50 for preferential cytotoxicity against human PANC-1 cells in nutrient-deprived medium; format: functional
# MIA PaCa-2 [7] = assay: Antimetastatic activity in human MIA PaCa-2 cells in DMEM media assessed as reduction in colony area at 5 uM incubated for 24 hrs by crystal violet staining-based assay (reference value: 37%); format: functional; design: scale not given: the % may be the effect or the level left
# [8] = Toxicity in BALB/c/Nu/Nu mouse xenografted with human MIA PaCa-2 cells assessed as change in body weight at 20 mg/kg, ip administered 5 times a week for 4 weeks; format: organism-based; settings: in vivo, 672 h
# MIA PaCa-2 [9] = assay: Antitumor activity against human MIA PaCa-2 cells xenografted in BALB/c/Nu/Nu mouse assessed as reduction in final tumor weight at 20 mg/kg, ip administered 5 times a week for 4 weeks (reference value: […]); format: functional
# MIA PaCa-2 [10] = assay: Induction of endoplasmic reticulum (ER) stress in human MIA PaCa-2 cells in DMEM medium assessed as change in TRB3 level at 5 uM measured after 6 hrs by Western blot analysis; format: functional, cell-based
# Mus musculus [11] = assay: In-vivo modulation of PI3K/AKT/mTOR signalling pathway in human MIA PaCa-2 cells xenografted in BALB/c/Nu/Nu mouse assessed as downregulation of CHOP level at 60 mg/kg, ip administered 5 times a week for 4 weeks in presence of gemcitabine by Western blot analysis; format: functional, organism-based
# MIA PaCa-2 [12] = assay: Synergistic antitumor activity against human MIA PaCa-2 cells xenografted in BALB/c/Nu/Nu mouse assessed as increase in pleomorphism at 60 mg/kg, ip administered 5 times a week for 4 weeks by H and E staining based analysis; format: functional, organism-based
# [13] = Toxicity in BALB/c/Nu/Nu mouse xenografted with human MIA PaCa-2 cells assessed as change in abdominal organs at 60 mg/kg, ip administered 5 times a week for 4 weeks; format: organism-based; settings: in vivo, 672 h
# Mus musculus [14] = assay: In-vivo modulation of PI3K/AKT/mTOR signalling pathway in human MIA PaCa-2 cells xenografted in BALB/c/Nu/Nu mouse assessed as downregulation of Akt phosphorylation at 60 mg/kg, ip administered 5 times a week for 4 weeks in presence of gemcitabine by Western blot analysis; format: functional, organism-based
# MIA PaCa-2 [15] = assay: Induction of endoplasmic reticulum (ER) stress in human MIA PaCa-2 cells assessed as reduction in GRP78 expression at 5 uM measured after 6 hrs by Western blot analysis; format: functional, cell-based
# MIA PaCa-2 [16] = assay: Induction of endoplasmic reticulum (ER) stress in human MIA PaCa-2 cells xenografted in BALB/c/Nu/Nu mouse assessed as downregulation of GRP78 expression in presence of gemcitabine by immunohistochemistry analysis; format: functional, cell-based
# MIA PaCa-2 [17] = assay: Preferential cytotoxicity against human MIA PaCa-2 cells in DMEM measured after 24 hrs by WST-8 cell counting analysis; format: functional, cell-based; settings: MIA PaCa-2, 24 h
# MIA PaCa-2 [18] = assay: Antitumor activity against human MIA PaCa-2 cells xenografted in BALB/c/Nu/Nu mouse assessed as reduction in number of blood vessels in skin at 60 mg/kg, ip administered 5 times a week for 4 weeks in presence of gemcitabine; format: functional, organism-based
# MIA PaCa-2 [19] = assay: Antitumor activity against human MIA PaCa-2 cells xenografted in BALB/c/Nu/Nu mouse assessed as reduction in number of blood vessels in skin at 20 mg/kg, ip administered 5 times a week for 4 weeks; format: functional, organism-based
# MIA PaCa-2 [20] = assay: Antitumor activity against human MIA PaCa-2 cells xenografted in BALB/c/Nu/Nu mouse assessed as reduction in final tumor weight at 60 mg/kg, ip administered 5 times a week for 4 weeks in presence of gemcitabine (reference value: […]); format: functional
# Mus musculus [21] = assay: In-vivo modulation of PI3K/AKT/mTOR signalling pathway in human MIA PaCa-2 cells xenografted in BALB/c/Nu/Nu mouse assessed as downregulation of GRP78 level at 60 mg/kg, ip administered 5 times a week for 4 weeks in presence of gemcitabine by Western blot analysis; format: functional, organism-based
# MIA PaCa-2 [22] = assay: Antimetastatic activity in human MIA PaCa-2 cells in DMEM media assessed as reduction in colony area at 20 uM incubated for 24 hrs by crystal violet staining-based assay; format: functional; design: scale not given: the % may be the effect or the level left
# Mus musculus [23] = assay: In-vivo modulation of PI3K/AKT/mTOR signalling pathway in human MIA PaCa-2 cells xenografted in BALB/c/Nu/Nu mouse assessed as downregulation of mTOR phosphorylation at 60 mg/kg, ip administered 5 times a week for 4 weeks in presence of gemcitabine by Western blot analysis; format: functional, organism-based
# [24] = Modulation of PI3K/AKT/mTOR signalling pathway in human MIA PaCa-2 cells in DMEM medium assessed as downregulation of AKT expression incubated for 24 hrs in presence of gemcitabine by Western blot analysis; format: cell-based; settings: filed as modulator, dose 1-5 µM
# [25] = Modulation of PI3K/AKT/mTOR signalling pathway in human MIA PaCa-2 cells in DMEM medium assessed as downregulation of AKT expression at 1 to 5 uM incubated for 24 hrs in presence of gemcitabine by Western blot analysis; format: cell-based; settings: filed as modulator, dose 1-5 µM
# MIA PaCa-2 [26] = assay: Induction of endoplasmic reticulum (ER) stress in human MIA PaCa-2 cells assessed as reduction in CHOP expression measured after 6 hrs by Western blot analysis; format: functional, cell-based; settings: dose 5.0 µM
# [27] = Toxicity in BALB/c/Nu/Nu mouse xenografted with human MIA PaCa-2 cells assessed as change in body weight at 60 mg/kg, ip administered 5 times a week for 4 weeks in presence of gemcitabine; format: organism-based; settings: in vivo, 672 h
# MIA PaCa-2 [28] = assay: Antitumor activity against human MIA PaCa-2 cells xenografted in BALB/c/Nu/Nu mouse assessed as reduction in tumor volume at 20 mg/kg, ip administered 5 times a week for 4 weeks and measured on day 16; format: functional, organism-based; settings: time 16.0 day
# [29] = Modulation of PI3K/AKT/mTOR signalling pathway in human MIA PaCa-2 cells in DMEM medium assessed as downregulation of GRP78 expression incubated for 24 hrs in presence of gemcitabine by Western blot analysis; format: cell-based; settings: filed as modulator, dose 1-5 µM
smiles,measurement,setting,value
CC(C)=CCCC1=CC[C@H](C(=O)c2c(O)cccc2O)[C@@H](c2cccc(F)c2F)C1 (relative stereo),Activity,MIA PaCa-2 [1],Active
same,Activity,MIA PaCa-2 [2],Dose-Dependent Effect
same,Activity,MIA PaCa-2 [3],Dose-Dependent Effect
same,Activity,MIA PaCa-2 [4],528 mm3
same,Activity,MIA PaCa-2 [5],91%
same,Selectivity Index,[6],40.8
same,Activity,MIA PaCa-2 [7],14%
same,Activity,[8],Non-Toxic
same,Activity,MIA PaCa-2 [9],321 mg
same,Activity,MIA PaCa-2 [10],Active
same,Activity,Mus musculus [11],Active
same,Activity,MIA PaCa-2 [12],Active
same,Activity,[13],Non-Toxic
same,Activity,Mus musculus [14],Active
same,Activity,MIA PaCa-2 [15],Active
same,Activity,MIA PaCa-2 [16],Active
same,pIC50,MIA PaCa-2 [17],4.22
same,Activity,MIA PaCa-2 [18],Active
same,Activity,MIA PaCa-2 [19],Active
same,Activity,MIA PaCa-2 [20],139 mg
same,Activity,Mus musculus [21],Active
same,Activity,MIA PaCa-2 [22],98%
same,Activity,Mus musculus [23],Active
same,Activity,[24],Dose-Dependent Effect
same,Activity,[25],Active
same,Activity,MIA PaCa-2 [26],Dose-Dependent Effect
same,Activity,[27],Non-Toxic
same,Activity,MIA PaCa-2 [28],Active
same,Activity,[29],Dose-Dependent Effect
